The assay deals with T1, cloned human dopamine D3 receptors (Homo sapiens, UniProt P35462).
T1 construct: expressed in transfected cells; membrane homogenate
Description: [N-Methyl-3H]Spiroperidol binding to cloned human dopamine D3 receptors (Protocol 1). The method in brief: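 Radioligand displacement with [N-methyl-3H]spiroperidol used a physiological-salt Tris buffer (0.05 M, pH 7.7; NaCl 120 mM, KCl 5 mM, CaCl2 2 mM, MgCl2 1 mM) and membranes of a high-expressing stable CHO clone carrying human D3. Total ligand concentration came from measured added CPM; 0.1% ascorbic acid was optional for oxidizable compounds.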

Setting [1] is: the 14th table, read-out: D3 Ki.
Setting [2] is: the 13th table, unit inferred, read-out: D3Ki.
[3] abbreviates: the 21st table, read-out: D3 Ki.
Where [4] appears, read: the 23rd table, read-out: D3 Ki.
Where [5] appears, read: the 15th table, read-out: D3 Ki.
Setting [6] is: the 16th table, read-out: D3 Ki.
Where [7] appears, read: the 22nd table, read-out: D3 Ki.
Where [8] appears, read: the 18th table, read-out: D3 Ki.

Results on 62 compounds are retold here after patent US7550469B2, “Heterocyclic amide derivatives and their use as dopamine D3 receptor ligands” (Aventis Pharmaceuticals Inc., priority 2001, dated 2009).

Where two headings read alike, the source gives them in different places.

T1 sequence (P35462 whole entry): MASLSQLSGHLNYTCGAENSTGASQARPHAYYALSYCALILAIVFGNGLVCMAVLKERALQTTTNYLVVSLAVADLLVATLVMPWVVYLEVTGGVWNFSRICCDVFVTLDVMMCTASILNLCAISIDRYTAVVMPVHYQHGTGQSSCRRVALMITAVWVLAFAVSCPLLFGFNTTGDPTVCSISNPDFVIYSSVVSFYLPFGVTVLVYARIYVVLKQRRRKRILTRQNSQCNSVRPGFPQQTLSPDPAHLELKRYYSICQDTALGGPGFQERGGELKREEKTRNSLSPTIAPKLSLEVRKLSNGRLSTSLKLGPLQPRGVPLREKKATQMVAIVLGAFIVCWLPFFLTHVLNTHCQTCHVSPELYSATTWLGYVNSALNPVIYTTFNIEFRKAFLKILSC

`COc1ccc(C(=O)N[C@H](CO)CCCN2CCN(c3csc4cc(C(F)(F)F)ccc34)CC2)cc1` [compound 815692]: the Ki turned out to be 191 nM (Table 2, read-out: D3K1); 191 nM (read-out: D3K1); 191 nM under setting [1].

Take `O=C(NCCCCN1CCCN(c2csc3cc(C(F)(F)F)ccc23)CC1)c1ccc2cc[nH]c2c1` [S980652]: under setting [2], the Ki was determined as 16.8 nM.

For `O=C(NCCCCN1CCN(c2c(Cl)sc3cc(C(F)(F)F)ccc23)CC1)c1ccccc1C(F)(F)F` [compound 815573], the Ki (read-out: D3K1) was 35 nM.

For `O=C(Cc1ccccc1)NC[C@@H]1CC1CN1CCCN(c2csc3cc(F)ccc23)CC1` (stereo partly shown) [compound 831204], the Ki (the 17th table, read-out: D3 Ki) stood at 5.05 nM.

Consider `O=C(NCCCCN1CCCN(c2csc3cc(F)ccc23)CC1)c1cc(F)cc(F)c1` [S981849], for which the Ki under setting [2] was found to be 5.03 nM.

On to `C[C@@H]1CN(c2csc3cc(F)ccc23)C[C@H](C)N1CCCCNC(=O)c1cccc2[nH]ccc12` [compound 826963], for which the Ki under setting [3] was determined as 72.9 nM.

`C[C@@H]1CN(c2csc3cc(C(F)(F)F)ccc23)C[C@H](C)N1CCCCNC(=O)c1ccc(C(C)(C)C)cc1` [compound 826934]: the Ki under setting [3] was 227 nM.

Consider `O=C(NCCCCCN1CCCN(c2csc3cc(F)ccc23)CC1)c1cccc(Cl)c1` [S984486], for which, under setting [2], the Ki is 31.5 nM.

For the compound `Cc1nn(C)c2sc(C(=O)NCCCCCN3CCCN(c4csc5cc(F)ccc45)CC3)cc12` [S984503], under setting [2], the Ki came out at 10.2 nM.

Turning to `O=C(NCCCCCN1CCCN(c2csc3cc(F)ccc23)CC1)c1cccc2[nH]ccc12` [S984508], under setting [2], the Ki turned out to be 34.8 nM.

In the case of `COc1ccc(NC[C@@H]2C[C@H]2CN2CCN(c3csc4cc(C(F)(F)F)ccc34)CC2)cc1` [compound 832279], the Ki under setting [4] stood at 57 nM.

Take `O=C(NCCCCN1C2CCC1CC(c1noc3ccccc13)C2)c1cc2ccccc2s1` (stereo not shown) [compound 816535]: the Ki under setting [5] stood at 66.4 nM.

Consider `O=C(NCCCCCN1CCCN(c2csc3cc(F)ccc23)CC1)c1ccc(OC(F)(F)F)cc1` [S9894488], for which the Ki under setting [2] stood at 23.8 nM.

For the compound `O=C(NCCCCN1CCCN(c2csc3cc(C(F)(F)F)ccc23)CC1)c1ccc(F)cc1` [S980637], the Ki under setting [2] came to 43 nM.

Consider `CC[C@H]1CC[C@H](NC[C@@H]2C[C@H]2CN2CCN(c3ccc(C)cc3C)CC2)CC1` [compound 832266], for which the Ki under setting [4] was 29.6 nM.

As for `O=C(NC/C=C/CN1CCN(c2csc3cc(C(F)(F)F)ccc23)CC1)c1ccccc1` [compound 827715], the Ki (read-out: D3K1) stood at 24 nM.

Turning to `O=C(NCCCCCN1CCCN(c2csc3cc(F)ccc23)CC1)c1cc2sccc2s1` [S984502], the Ki under setting [2] amounted to 6.41 nM.

Take `COc1cc(OC)cc(C(=O)NCCCCCN2CCCN(c3csc4cc(F)ccc34)CC2)c1` [S984487]: the Ki under setting [2] came out at 31.8 nM.

For `CCN(CC)c1ccc2cc(C(=O)NCCCCN3CCCN(c4csc5cc(F)ccc45)CC3)oc2c1` [compound 827123], the Ki reads like this: (Table 2, read-out: D3K1) 107 nM; under setting [6], 107 nM.

With `C[C@@H]1CN(c2csc3cc(C(F)(F)F)ccc23)C[C@H](C)N1CCCCNC(=O)c1cccc2ccccc12` [compound 827041], under setting [3], the Ki stood at 357 nM.

As for `COc1cccc(C(=O)NC/C=C\CN2CCN(c3csc4cc(C(F)(F)F)ccc34)CC2)c1` [compound 826344], the Ki (read-out: D3K1) was determined as 29 nM.

As to `OC1CCC(NCC2CC2CN2CCN(c3csc4cc(C(F)(F)F)ccc34)CC2)CC1` (racemic) [832390FH], the Ki under setting [4] came to 21.8 nM.

On to `O=C(NCCCCN1CCN(c2csc3cc(C(F)(F)F)ccc23)CC1)c1ccc(-c2ccccc2)cc1` [compound 815547], for which, where the note is “read-out: D3K1”, the Ki came out at 4.4 nM.

For the compound `C[C@@H]1CN(c2csc3cc(C(F)(F)F)ccc23)C[C@H](C)N1CCCCNC(=O)c1cccs1` [compound 827037], the Ki under setting [3] is 106 nM.

Take `O=C(NCCCCN1C2CCC1CC(c1noc3cc(F)ccc13)C2)c1ccc(F)cc1` (stereo not shown) [compound 816333]: the Ki under setting [5] amounted to 474 nM.

Turning to `O=C(NCCCCN1CCN(c2noc3ccsc23)CC1)c1ccc2[nH]ccc2c1` [compound 829683], the Ki under setting [7] turned out to be 37.5 nM.

In the case of `O=C(NCCCCN1CCN(c2noc3ccsc23)CC1)c1cc2ccccc2s1` [compound 829681], the Ki under setting [7] came out at 17.7 nM.

Take `O=C(NCCCCCN1CCN(c2csc3cc(C(F)(F)F)ccc23)CC1)c1cccc(F)c1` [compound 826772]: the Ki reads like this: (read-out: D3K1) 7.8 nM; under setting [1], 7.8 nM.

`O=C(NCc1sccc1CN1CCN(c2csc3cc(F)ccc23)CC1)c1cccc(C(F)(F)F)c1` [compound 826301]: the Ki under setting [8] is 94 nM.

Consider `FC(F)(F)Oc1cccc(CNC[C@@H]2C[C@H]2CN2CCN(c3csc4cc(C(F)(F)F)ccc34)CC2)c1` [compound 833067], for which the Ki under setting [4] was 54.9 nM.

Regarding `CC(=O)Nc1ccc(C(=O)N[C@H](CO)CCCN2CCN(c3csc4cc(C(F)(F)F)ccc34)CC2)cc1` [compound 815691], the Ki by setting is: (Table 2, read-out: D3K1) 241 nM; (read-out: D3K1) 241 nM; under setting [1], 241 nM.

As to `CSc1ncccc1C(=O)N[C@@H](CO)CCCN1CCN(c2csc3cc(C(F)(F)F)ccc23)CC1` [compound 815681], the Ki is, setting by setting: (Table 2, read-out: D3K1) 261 nM; (read-out: D3K1) 261 nM; under setting [1], 261 nM.

Regarding `O=C(Cc1ccccc1)NCC1CCC1CN1CCN(c2csc3cc(C(F)(F)F)ccc23)CC1` (stereo not shown) [compound 826293], under “read-out: D3K1”, the Ki was determined as 240 nM.

For the compound `O=C(NCCCCN1CCN(c2c(Cl)sc3cc(F)ccc23)CC1)c1ccccc1C(F)(F)F` [compound 815065], where the note is “read-out: D3K1”, the Ki was 43.8 nM.

`COc1cc(OC)cc(C(=O)NCCCCN2CCCN(c3csc4cc(F)ccc34)CC2)c1` [compound 82251]: the Ki under setting [2] turned out to be 10.9 nM.

Turning to `CSc1nsc(SC)c1C(=O)NCCCCN1CCCN(c2csc3cc(C(F)(F)F)ccc23)CC1` [S980661], under setting [2], the Ki stood at 151 nM.

Take `O=C(NCCCCN1CCN(c2c(Cl)sc3cc(F)ccc23)CC1)C1CCCC1` [compound 815071]: the Ki (read-out: D3K1) amounted to 7.2 nM.

For `O=C(NCCCCN1C2CCC1CC(c1noc3ccccc13)C2)c1ccccc1` (stereo not shown) [compound 816528], the Ki under setting [5] stood at 299 nM.

Take `c1ccc(OCCNCC2CC2CN2CCC(c3noc4ccsc34)CC2)cc1` (racemic) [832296FH]: under setting [4], the Ki turned out to be 126 nM.

As for `COc1ccc(C(=O)NC/C=C/CN2CCN(c3csc4cc(C(F)(F)F)ccc34)CC2)cc1` [compound 827738], under “Table 2, read-out: D3K1”, the Ki turned out to be 22.6 nM.

As for `O=C(NCCCCN1CCN(c2c(-c3ccccc3)sc3cc(F)ccc23)CC1)c1cccc(F)c1` [compound 815870], the Ki reads like this: (Table 2, read-out: D3K1) 28.4 nM; under setting [1], 28.4 nM.

Take `O=C(NCc1sccc1CN1CCN(c2csc3cc(F)ccc23)CC1)c1ccc(F)cc1` [compound 826304]: the Ki under setting [8] was 84 nM.

As for `O=C(NCC(CO)CCN1CCN(c2csc3cc(C(F)(F)F)ccc23)CC1)c1ccco1` (stereo not shown) [818924ES], the Ki (Table 2, read-out: D3K1) turned out to be 318 nM.

For the compound `O=C(N[C@H](CO)CCCN1CCN(c2csc3cc(C(F)(F)F)ccc23)CC1)c1cc2ccccc2s1` [compound 815708], the Ki by setting is: (Table 2, read-out: D3K1) 180 nM; (read-out: D3K1) 180 nM; under setting [1], 180 nM.

With `O=C(NCCCCN1CCCN(c2csc3cc(F)ccc23)CC1)c1ccc2ccccc2c1` [compound 822156], under setting [2], the Ki was determined as 0.67 nM.

As to `O=C(NCCCCN1CCCN(c2csc3cc(F)ccc23)CC1)c1cccc2cccnc12` [compound 817266], the Ki is, setting by setting: (Table 2, read-out: D3K1) 8.73 nM; under setting [6], 8.73 nM.

Turning to `COc1ccc2[nH]c(C(=O)NCCCCCCN3CCN(c4csc5cc(C(F)(F)F)ccc45)CC3)cc2c1` [compound 826738], the Ki (read-out: D3K1) stood at 6.1 nM and the Ki under setting [1] was 6.1 nM.

On to `O=C(NCC(CO)CCN1CCN(c2csc3cc(C(F)(F)F)ccc23)CC1)c1ccoc1` (stereo not shown) [818925ES], for which the Ki (Table 2, read-out: D3K1) stood at 293 nM.

Take `COc1ccc2[nH]c(C(=O)NCCCCN3[C@H](C)CN(c4csc5cc(C(F)(F)F)ccc45)C[C@@H]3C)cc2c1` [compound 826951]: the Ki under setting [3] was 41.3 nM.

For the compound `O=C(NC/C=C/CN1CCN(c2csc3cc(C(F)(F)F)ccc23)CC1)C1(c2ccccc2)CC1` [compound 827740], the Ki (Table 2, read-out: D3K1) was found to be 397 nM.

For `O=C(NCCCCCN1CCN(c2csc3cc(F)ccc23)CC1)c1cccc2ccccc12` [compound 826778], the Ki under setting [1] worked out at 2.75 nM.

Take `O=C(NCCCCN1CCN(c2c(-c3ccccc3)sc3cc(F)ccc23)CC1)c1ccc(-c2ccccc2)cc1` [compound 815872]: the Ki (Table 2, read-out: D3K1) amounted to 567 nM.

Regarding `FC(F)(F)c1ccc2c(N3CCN(C[C@@H]4C[C@H]4CNCCSc4ccc(Cl)cc4)CC3)csc2c1` [compound 832388], the Ki under setting [4] was 71.9 nM.

As to `Cc1csc2c(N3CCN(CCCCNC(=O)CCCc4ccccc4)CC3)noc12` [compound 830748], the Ki under setting [7] is 63.8 nM.

On to `CSCCCNC[C@@H]1C[C@H]1CN1CCN(c2csc3cc(C(F)(F)F)ccc23)CC1` [compound 832280], for which, under setting [4], the Ki was 19.2 nM.

Consider `O=C(Nc1ccc(CN2CCN(c3csc4cc(F)ccc34)CC2)cc1)c1cccs1` [compound 822213], for which, for the setting “the 19th table, read-out: D3 Ki”, the Ki stood at 63 nM.

Turning to `O=C(NC/C=C\CN1CCN(c2csc3cc(C(F)(F)F)ccc23)CC1)c1ccccn1` [compound 826335], the Ki (read-out: D3K1) is 42 nM.

For `O=C(NC[C@@H]1CCCC[C@H]1CN1CCN(c2csc3cc(C(F)(F)F)ccc23)CC1)c1cc2ccccc2[nH]1` [compound 826285], the Ki (read-out: D3K1) stood at 170 nM.

Take `OC(CCN1CCC(c2noc3ccsc23)CC1)CN1CCN(c2ccccc2)CC1` (stereo not shown) [compound 831943]: the Ki (the 26th table, read-out: D3 Ki) came to 264 nM.

In the case of `O=C(NCCCCCCN1CCN(c2csc3cc(C(F)(F)F)ccc23)CC1)c1ccc(OC(F)(F)F)cc1` [compound 826749], the Ki runs as follows: (read-out: D3K1) 8.7 nM; under setting [1], 8.7 nM.

With `O=C(NCc1sccc1CN1CCN(c2csc3cc(F)ccc23)CC1)c1cccnc1Cl` [compound 826313], under setting [8], the Ki stood at 134 nM.

In the case of `COc1ccc(C(=O)NCCCCN2CCN(c3c(Cl)sc4cc(F)ccc34)CC2)cc1OC` [compound 815062], the Ki (read-out: D3K1) worked out at 4.1 nM.
